Calls of active or inactive are those of the source. No rule for the calls is given here.
Test system: CCRIS mutagenicity, Ames/micronucleus/aberration tests
Test: CCRIS mutagenicity studies

O=C(c1ccccc1)C(O)c1ccccc1 (stereo not drawn)
mutagenic call (Test System: AMES SALMONELLA TYPHIMURIUM, Strain/Indicator: TA1535, Metabolic Activation: NONE, Method: STANDARD PLATE): inactive; negative | mutagenic call (Test System: AMES SALMONELLA TYPHIMURIUM, Strain/Indicator: TA1535, Metabolic Activation: RAT LIVER S-9, AROCLOR 1254 (5%), Method: PREINCUBATION): inactive; negative | mutagenic call (Test System: AMES SALMONELLA TYPHIMURIUM, Strain/Indicator: TA1535, Metabolic Activation: RAT LIVER S-9, AROCLOR 1254 (10%), Method: PREINCUBATION): inactive; negative | mutagenic call (Test System: AMES SALMONELLA TYPHIMURIUM, Strain/Indicator: TA1535, Metabolic Activation: RAT, LIVER, S-9, AROCLOR 1254, Method: STANDARD PLATE): inactive; negative | mutagenic call (Test System: AMES SALMONELLA TYPHIMURIUM, Strain/Indicator: TA1537, Metabolic Activation: NONE, Method: STANDARD PLATE): inactive; negative | mutagenic call (Test System: AMES SALMONELLA TYPHIMURIUM, Strain/Indicator: TA1537, Metabolic Activation: RAT, LIVER, S-9, AROCLOR 1254, Method: STANDARD PLATE): inactive; negative | mutagenic call (Test System: AMES SALMONELLA TYPHIMURIUM, Strain/Indicator: TA1538, Metabolic Activation: NONE, Method: STANDARD PLATE): inactive; negative | mutagenic call (Test System: AMES SALMONELLA TYPHIMURIUM, Strain/Indicator: TA1538, Metabolic Activation: RAT, LIVER, S-9, AROCLOR 1254, Method: STANDARD PLATE): inactive; negative | mutagenic call (Test System: AMES SALMONELLA TYPHIMURIUM, Strain/Indicator: TA2638, Metabolic Activation: RAT LIVER S-9, PHENOBARBITAL AND 5,6-BENZOFLAVONE, Method: STANDARD PLATE): inactive; negative | mutagenic call (Test System: CHINESE HAMSTER OVARY, Strain/Indicator: CHO-K1-BH4 (HGPRT)/6-THIOGUANINE, Metabolic Activation: NONE, Method: SUSPENSION/PLATE): inactive; negative | mutagenic call (Test System: CHINESE HAMSTER OVARY, Strain/Indicator: CHO-K1-BH4 (HGPRT)/6-THIOGUANINE, Metabolic Activation: S-9, Method: SUSPENSION/PLATE): inactive; negative | mutagenic call (Test System: CHINESE HAMSTER OVARY, Strain/Indicator: CHO-K1-BH4 (HGPRT), Metabolic Activation: NONE, Method: SUSPENSION/PLATE): inactive; negative | mutagenic call (Test System: CHINESE HAMSTER OVARY, Strain/Indicator: CHO-K1-BH4 (HGPRT), Metabolic Activation: RAT, LIVER, S-9, AROCLOR, Method: SUSPENSION/PLATE): inactive; negative | mutagenic call (Test System: CHINESE HAMSTER V-79, Strain/Indicator: V-79 (HGPRT)/8-AZAGUANINE, Metabolic Activation: NONE, Method: REPLATING): inactive; negative | mutagenic call (Test System: CHINESE HAMSTER V-79, Strain/Indicator: V-79 (HGPRT)/8-AZAGUANINE, Metabolic Activation: RAT, LIVER, S-9, AROCLOR 1254, Method: REPLATING): active; positive | mutagenic call (Test System: CHINESE HAMSTER V-79, Strain/Indicator: V-79/6-THIOGUANINE, Metabolic Activation: NONE, Method: REPLATING): inactive; negative | mutagenic call (Test System: CHINESE HAMSTER V-79, Strain/Indicator: V-79/6-THIOGUANINE, Metabolic Activation: RAT, LIVER, S-9, PHENOBARBITAL AND 5,6-BENZOFLAVONE, Method: REPLATING): active; positive | mutagenic call (Test System: CHINESE HAMSTER V-79, Strain/Indicator: V-79/OUABAIN, Metabolic Activation: HAMSTER EMBRYO CELL-MEDIATED): inactive; negative | mutagenic call (Test System: CHINESE HAMSTER V-79, Strain/Indicator: V-79/OUABAIN, Metabolic Activation: NONE): inactive; negative | mutagenic call (Test System: CHINESE HAMSTER V-79, Strain/Indicator: V-79/OUABAIN, Metabolic Activation: RAT, LIVER, S-15, PHENOBARBITAL AND 5,6-BENZOFLAVONE): inactive; negative | mutagenic call (Test System: E. COLI, Strain/Indicator: WP2 (PKM101), Metabolic Activation: RAT LIVER S-9, PHENOBARBITAL AND 5,6-BENZOFLAVONE, Method: STANDARD PLATE): inactive; negative | mutagenic call (Test System: E. COLI, Strain/Indicator: WP2 UVRA (PKM101), Metabolic Activation: RAT LIVER S-9, PHENOBARBITAL AND 5,6-BENZOFLAVONE, Method: STANDARD PLATE): inactive; negative | mutagenic call (Test System: MOUSE LYMPHOMA, Strain/Indicator: L5178Y (TK+/-)/TRIFLUROTHYMIDINE, Metabolic Activation: NONE, Method: SUSPENSION/PLATE): inactive; negative | mutagenic call (Test System: MOUSE LYMPHOMA, Strain/Indicator: L5178Y (TK+/-)/TRIFLUROTHYMIDINE, Metabolic Activation: RAT LIVER S-9, AROCLOR 1254, Method: SUSPENSION/PLATE): inactive; negative | mutagenic call (Test System: MOUSE LYMPHOMA, Strain/Indicator: L5178Y (TK+/TK-), Metabolic Activation: NONE, Method: SUSPENSION/PLATE): inactive; negative | mutagenic call (Test System: MOUSE LYMPHOMA, Strain/Indicator: L5178Y (TK+/TK-), Metabolic Activation: RAT, LIVER, S-9, Method: SUSPENSION/PLATE): inactive; negative | mutagenic call (Test System: MOUSE LYMPHOMA, Strain/Indicator: L5178Y (TK+/TK-), Metabolic Activation: S-9, Method: SUSPENSION/PLATE): active; positive | mutagenic call (Test System: UDS RAT HEPATOCYTES, Strain/Indicator: THY INCORP, Metabolic Activation: NONE, Method: LIQUID SCINTILLATION COUNTING): active; positive

Reference: PubChem BioAssay AID1259407 (Chemical Carcinogenesis Research Information System (CCRIS), 2018)
